Test results from ChEMBL document CHEMBL3885881, “DrugMatrix”.
Several values for one entry are separate records, joined by “and”; a condition that tells them apart may be missing. Identical values can stand only once.

Organism: Rattus norvegicus
Assay: DrugMatrix - Regimen: Daily Repeat
Type: toxicity, organism-based, Sprague-Dawley
Design: regimen Daily Repeat, gender Male, age 6-8 weeks
Details: in vivo, po, route oral GAVAGE, vehicle .5 % CMC; for BASOPHIL / EOSINOPHIL / ERYTHROCYTE COUNT / HEMATOCRIT / HEMOGLOBIN / LEUKOCYTE COUNT / LYMPHOCYTE / MEAN CORPUSCULAR HEMOGLOBIN / MEAN CORPUSCULAR HEMOGLOBIN CONCENTRATION / MEAN CORPUSCULAR VOLUME / MONOCYTE / NEUTROPHIL / PLATELET COUNT / ABSOLUTE BASOPHIL / ABSOLUTE EOSINOPHIL / ABSOLUTE LYMPHOCYTE / ABSOLUTE MONOCYTE / ABSOLUTE SEGMENTED NEUTROPHIL: tissue Blood; for ALANINE AMINOTRANSFERASE / ALBUMIN / ALKALINE PHOSPHATASE / ASPARTATE AMINOTRANSFERASE / BLOOD UREA NITROGEN / CHLORIDE / CHOLESTEROL / CREATINE PHOSPHOKINASE / CREATININE / GLUCOSE / PHOSPHORUS / POTASSIUM / SODIUM / TOTAL BILIRUBIN / TOTAL PROTEIN / LACTATE DEHYDROGENASE / LIPASE / URIC ACID: tissue Plasma
[1] = 0 mg/kg, 72 h, dose level Control, time 3 day
[2] = 0 mg/kg, 120 h, dose level Control, time 5 day
[3] = 0 mg/kg, 2184 h, dose level Control, time 91 day
[4] = 0 mg/kg, […], dose level Control, time 28 day
[5] = 0.0007 mg/kg, 120 h, dose level Low, time 5 day
[6] = 0.0007 mg/kg, 2184 h, dose level Low, time 91 day

Clc1cc2c(cc1Cl)Oc1cc(Cl)c(Cl)cc1O2 [2,3,7,8-TETRACHLORODIBENZO-P-DIOXIN]
BASOPHIL [1]: 0.52% | EOSINOPHIL [1]: 0.48% | ERYTHROCYTE COUNT [1]: 6.68 x10E6/uL | HEMATOCRIT [1]: 43.07% | HEMOGLOBIN [1]: 13.48 G/DL | LEUKOCYTE COUNT [1]: 11.41 x10E3/uL | LYMPHOCYTE [1]: 80.78% | MEAN CORPUSCULAR HEMOGLOBIN [1]: 20.2 pg | MEAN CORPUSCULAR HEMOGLOBIN CONCENTRATION [1]: 31.32 G/DL | MEAN CORPUSCULAR VOLUME [1]: 64.45 fL | MONOCYTE [1]: 2.23% | NEUTROPHIL [1]: 14.73% | PLATELET COUNT [1]: 1225.83 x10E3/uL | ALANINE AMINOTRANSFERASE [1]: 44.5 u/L | ALBUMIN [1]: 3.62 G/DL | ALKALINE PHOSPHATASE [1]: 404.5 u/L | ASPARTATE AMINOTRANSFERASE [1]: 71.67 u/L | BLOOD UREA NITROGEN [1]: 15 mg/dL | CHLORIDE [1]: 103 MEQ/L | CHOLESTEROL [1]: 96.83 mg/dL | CREATINE PHOSPHOKINASE [1]: 236 u/L | CREATININE [1]: 0.43 mg/dL | GLUCOSE [1]: 186.83 mg/dL | PHOSPHORUS [1]: 12.67 mg/dL | POTASSIUM [1]: 7.1 MEQ/L | SODIUM [1]: 147.33 MEQ/L | TOTAL BILIRUBIN [1]: 0.52 mg/dL | TOTAL PROTEIN [1]: 6.18 G/DL | ABSOLUTE BASOPHIL [2]: 92 cells/µL | ABSOLUTE EOSINOPHIL [2]: 52 cells/µL | ABSOLUTE LYMPHOCYTE [2]: 6560 cells/µL | ABSOLUTE MONOCYTE [2]: 160 cells/µL | ABSOLUTE SEGMENTED NEUTROPHIL [2]: 1130 cells/µL | BASOPHIL [2]: 1.14% and 0.92% | EOSINOPHIL [2]: 0.68% and 0.43% | ERYTHROCYTE COUNT [2]: 7.51 x10E6/uL and 7.03 x10E6/uL | HEMATOCRIT [2]: 46.04% and 46.55% | HEMOGLOBIN [2]: 15.62 G/DL and 14.32 G/DL | LEUKOCYTE COUNT [2]: 8.03 x10E3/uL and 12.22 x10E3/uL | LYMPHOCYTE [2]: 81.54% and 82.65% | MEAN CORPUSCULAR HEMOGLOBIN [2]: 20.84 pg and 20.35 pg | MEAN CORPUSCULAR HEMOGLOBIN CONCENTRATION [2]: 33.94 G/DL and 30.77 G/DL | MEAN CORPUSCULAR VOLUME [2]: 61.42 fL and 66.28 fL | MONOCYTE [2]: 2% and 2.28% | NEUTROPHIL [2]: 14.24% and 12.73% | PLATELET COUNT [2]: 1427.2 x10E3/uL and 1268.67 x10E3/uL | ALANINE AMINOTRANSFERASE [2]: 35.6 u/L and 44.5 u/L | ALBUMIN [2]: 3.64 G/DL and 3.73 G/DL | ALKALINE PHOSPHATASE [2]: 233 u/L and 340.83 u/L | ASPARTATE AMINOTRANSFERASE [2]: 81 u/L and 66.5 u/L | BLOOD UREA NITROGEN [2]: 12 mg/dL and 13.33 mg/dL | CHLORIDE [2]: 109.4 MEQ/L and 102.17 MEQ/L | CHOLESTEROL [2]: 47.6 mg/dL and 82.17 mg/dL | CREATINE PHOSPHOKINASE [2]: 183.2 u/L and 146.67 u/L | CREATININE [2]: 0.4 mg/dL and 0.35 mg/dL | GLUCOSE [2]: 134.6 mg/dL and 186.17 mg/dL | LACTATE DEHYDROGENASE [2]: 89.4 u/L | LIPASE [2]: 17.2 u/L | PHOSPHORUS [2]: 13.02 mg/dL and 11.83 mg/dL | POTASSIUM [2]: 7 MEQ/L and 6.47 MEQ/L | SODIUM [2]: 149.6 MEQ/L and 148.83 MEQ/L | TOTAL PROTEIN [2]: 6.06 G/DL and 6.27 G/DL | URIC ACID [2]: 1.04 mg/dL | ABSOLUTE BASOPHIL [3]: 130 cells/µL | ABSOLUTE EOSINOPHIL [3]: 70 cells/µL | ABSOLUTE LYMPHOCYTE [3]: 8670 cells/µL | ABSOLUTE MONOCYTE [3]: 160 cells/µL | ABSOLUTE SEGMENTED NEUTROPHIL [3]: 1530 cells/µL | BASOPHIL [3]: 1.13% | EOSINOPHIL [3]: 0.66% | ERYTHROCYTE COUNT [3]: 9.13 x10E6/uL | HEMATOCRIT [3]: 48.47% | HEMOGLOBIN [3]: 16.56 G/DL | LEUKOCYTE COUNT [3]: 10.5 x10E3/uL | LYMPHOCYTE [3]: 81.63% | MEAN CORPUSCULAR HEMOGLOBIN [3]: 18.16 pg | MEAN CORPUSCULAR HEMOGLOBIN CONCENTRATION [3]: 34.14 G/DL | MEAN CORPUSCULAR VOLUME [3]: 53.14 fL | MONOCYTE [3]: 1.53% | NEUTROPHIL [3]: 14.71% | PLATELET COUNT [3]: 1280.22 x10E3/uL | ALANINE AMINOTRANSFERASE [3]: 28.89 u/L | ALBUMIN [3]: 3.69 G/DL | ALKALINE PHOSPHATASE [3]: 101.11 u/L | ASPARTATE AMINOTRANSFERASE [3]: 70.67 u/L | BLOOD UREA NITROGEN [3]: 16.78 mg/dL | CHLORIDE [3]: 104.56 MEQ/L | CHOLESTEROL [3]: 58.78 mg/dL | CREATINE PHOSPHOKINASE [3]: 91.22 u/L | CREATININE [3]: 0.61 mg/dL | GLUCOSE [3]: 142.33 mg/dL | LACTATE DEHYDROGENASE [3]: 81.67 u/L | LIPASE [3]: 13 u/L | PHOSPHORUS [3]: 7.54 mg/dL | POTASSIUM [3]: 6.27 MEQ/L | SODIUM [3]: 149.89 MEQ/L | TOTAL BILIRUBIN [3]: 0.19 mg/dL | TOTAL PROTEIN [3]: 7.12 G/DL | URIC ACID [3]: 0.97 mg/dL | ABSOLUTE BASOPHIL [4]: 150 cells/µL | ABSOLUTE EOSINOPHIL [4]: 54 cells/µL | ABSOLUTE LYMPHOCYTE [4]: 8890 cells/µL | ABSOLUTE MONOCYTE [4]: 190 cells/µL | ABSOLUTE SEGMENTED NEUTROPHIL [4]: 2250 cells/µL | BASOPHIL [4]: 1.26% | EOSINOPHIL [4]: 0.46% | ERYTHROCYTE COUNT [4]: 8.34 x10E6/uL | HEMATOCRIT [4]: 48.66% | HEMOGLOBIN [4]: 16.04 G/DL | LEUKOCYTE COUNT [4]: 11.58 x10E3/uL | LYMPHOCYTE [4]: 76.74% | MEAN CORPUSCULAR HEMOGLOBIN [4]: 19.2 pg | MEAN CORPUSCULAR HEMOGLOBIN CONCENTRATION [4]: 32.92 G/DL | MEAN CORPUSCULAR VOLUME [4]: 58.32 fL | MONOCYTE [4]: 1.76% | NEUTROPHIL [4]: 19.44% | PLATELET COUNT [4]: 1282.6 x10E3/uL | ALANINE AMINOTRANSFERASE [4]: 27 u/L | ALBUMIN [4]: 3.68 G/DL | ALKALINE PHOSPHATASE [4]: 146.2 u/L | ASPARTATE AMINOTRANSFERASE [4]: 66.6 u/L | BLOOD UREA NITROGEN [4]: 12.4 mg/dL | CHLORIDE [4]: 104.6 MEQ/L | CHOLESTEROL [4]: 59.6 mg/dL | CREATINE PHOSPHOKINASE [4]: 121.8 u/L | CREATININE [4]: 0.6 mg/dL | GLUCOSE [4]: 143 mg/dL | LACTATE DEHYDROGENASE [4]: 87.8 u/L | LIPASE [4]: 17.4 u/L | PHOSPHORUS [4]: 8.68 mg/dL | POTASSIUM [4]: 6.02 MEQ/L | SODIUM [4]: 152.8 MEQ/L | TOTAL BILIRUBIN [4]: 0.26 mg/dL | TOTAL PROTEIN [4]: 6.92 G/DL | URIC ACID [4]: 0.52 mg/dL | ABSOLUTE BASOPHIL [5]: 72 cells/µL | ABSOLUTE EOSINOPHIL [5]: 44 cells/µL | ABSOLUTE LYMPHOCYTE [5]: 8990 cells/µL | ABSOLUTE MONOCYTE [5]: 220 cells/µL | ABSOLUTE SEGMENTED NEUTROPHIL [5]: 1360 cells/µL | BASOPHIL [5]: 0.68% | EOSINOPHIL [5]: 0.38% | ERYTHROCYTE COUNT [5]: 7.39 x10E6/uL | HEMATOCRIT [5]: 46.1% | HEMOGLOBIN [5]: 15.68 G/DL | LEUKOCYTE COUNT [5]: 10.75 x10E3/uL | LYMPHOCYTE [5]: 83.64% | MEAN CORPUSCULAR HEMOGLOBIN [5]: 21.26 pg | MEAN CORPUSCULAR HEMOGLOBIN CONCENTRATION [5]: 34.02 G/DL | MEAN CORPUSCULAR VOLUME [5]: 62.42 fL | MONOCYTE [5]: 2.06% | NEUTROPHIL [5]: 12.68% | PLATELET COUNT [5]: 1506.2 x10E3/uL | ALANINE AMINOTRANSFERASE [5]: 30.8 u/L | ALBUMIN [5]: 3.64 G/DL | ALKALINE PHOSPHATASE [5]: 238.8 u/L | ASPARTATE AMINOTRANSFERASE [5]: 76.4 u/L | BLOOD UREA NITROGEN [5]: 11.4 mg/dL | CHLORIDE [5]: 107.8 MEQ/L | CHOLESTEROL [5]: 61.4 mg/dL | CREATINE PHOSPHOKINASE [5]: 181.6 u/L | CREATININE [5]: 0.5 mg/dL | GLUCOSE [5]: 115 mg/dL | LACTATE DEHYDROGENASE [5]: 69.6 u/L | LIPASE [5]: 31.8 u/L | PHOSPHORUS [5]: 11.8 mg/dL | POTASSIUM [5]: 6.66 MEQ/L | SODIUM [5]: 150.8 MEQ/L | TOTAL BILIRUBIN [5]: 0.14 mg/dL | TOTAL PROTEIN [5]: 6.08 G/DL | URIC ACID [5]: 0.72 mg/dL | ABSOLUTE BASOPHIL [6]: 270 cells/µL | ABSOLUTE EOSINOPHIL [6]: 140 cells/µL | ABSOLUTE LYMPHOCYTE [6]: 10000 cells/µL | ABSOLUTE MONOCYTE [6]: 280 cells/µL | ABSOLUTE SEGMENTED NEUTROPHIL [6]: 2090 cells/µL | BASOPHIL [6]: 2.13%
